Entries after “also recorded” stand apart in the source; their conditions may differ. Where two headings read alike, the source gives them in different places. Values belong to the compound of their own block, whether it stands above or below them.
Columns and labels:
M1 [1] = molecular target: T1, M1 (Homo sapiens, UniProt P11229); assay: Ca2+ mobilization potentiation of ACh ~EC20, M1 CHO cells; assay type: cell-based
T1 sequence (P11229 1-460): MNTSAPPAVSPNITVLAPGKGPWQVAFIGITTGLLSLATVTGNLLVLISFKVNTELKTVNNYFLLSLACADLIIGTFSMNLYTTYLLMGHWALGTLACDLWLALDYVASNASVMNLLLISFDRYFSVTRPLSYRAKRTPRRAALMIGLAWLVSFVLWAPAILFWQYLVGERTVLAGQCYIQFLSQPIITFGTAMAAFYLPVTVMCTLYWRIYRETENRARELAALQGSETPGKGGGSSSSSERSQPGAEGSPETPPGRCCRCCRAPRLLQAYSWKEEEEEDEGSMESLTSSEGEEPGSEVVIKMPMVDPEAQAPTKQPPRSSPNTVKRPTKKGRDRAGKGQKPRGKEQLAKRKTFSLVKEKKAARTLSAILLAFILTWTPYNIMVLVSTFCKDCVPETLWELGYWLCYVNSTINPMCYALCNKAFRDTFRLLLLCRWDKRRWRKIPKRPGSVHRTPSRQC

M5 [2] = molecular target: T2, M5 (Homo sapiens, UniProt P08912); assay: Ca2+ mobilization assay, M5 CHO cells; assay type: cell-based
T2 sequence (P08912 1-532): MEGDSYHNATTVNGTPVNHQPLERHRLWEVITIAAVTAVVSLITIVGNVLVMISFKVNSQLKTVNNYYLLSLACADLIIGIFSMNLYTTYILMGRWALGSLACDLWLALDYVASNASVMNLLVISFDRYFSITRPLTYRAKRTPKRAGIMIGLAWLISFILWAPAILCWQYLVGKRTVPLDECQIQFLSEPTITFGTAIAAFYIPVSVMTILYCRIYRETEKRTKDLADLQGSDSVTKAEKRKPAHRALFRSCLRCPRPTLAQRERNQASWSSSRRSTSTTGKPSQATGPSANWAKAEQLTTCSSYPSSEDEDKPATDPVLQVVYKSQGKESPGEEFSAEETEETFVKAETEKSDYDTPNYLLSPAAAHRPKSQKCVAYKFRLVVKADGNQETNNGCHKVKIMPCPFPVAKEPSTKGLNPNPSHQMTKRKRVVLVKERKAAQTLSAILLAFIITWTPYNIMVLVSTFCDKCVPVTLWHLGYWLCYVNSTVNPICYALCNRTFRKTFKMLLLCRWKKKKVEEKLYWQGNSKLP

M2 = molecular target: T3, M2 (Homo sapiens, UniProt P08172); assay type: cell-based; conditions: fixed ACh ~EC20, Ca2+ assay, Gqi5 cotransfected, up to 30 µM
T3 sequence (P08172 1-466): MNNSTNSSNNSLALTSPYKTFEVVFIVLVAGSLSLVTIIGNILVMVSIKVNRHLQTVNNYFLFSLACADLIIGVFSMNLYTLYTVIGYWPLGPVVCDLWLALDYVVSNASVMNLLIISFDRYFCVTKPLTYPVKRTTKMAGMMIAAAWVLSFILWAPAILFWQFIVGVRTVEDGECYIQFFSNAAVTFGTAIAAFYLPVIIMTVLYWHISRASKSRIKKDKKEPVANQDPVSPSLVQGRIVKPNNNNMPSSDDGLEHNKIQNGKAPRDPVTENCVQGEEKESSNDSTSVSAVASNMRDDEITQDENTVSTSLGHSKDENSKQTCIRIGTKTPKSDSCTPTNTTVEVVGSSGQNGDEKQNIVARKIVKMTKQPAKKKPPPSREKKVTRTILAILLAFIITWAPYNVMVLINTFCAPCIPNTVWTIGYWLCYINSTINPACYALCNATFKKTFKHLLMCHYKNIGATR

M5 [3] = molecular target: T2, M5; assay: [3H]-NMS competition binding, M5-CHO membrane preparations; conditions: up to 30 µM, M5-CHO membranes
M4 = molecular target: T4, M4 (Homo sapiens, UniProt P08173); assay type: cell-based; conditions: for M4 potentiator activity: fixed ACh ~EC20, Ca2+ assay, Gqi5 cotransfected, up to 30 µM
T4 sequence (P08173 1-479): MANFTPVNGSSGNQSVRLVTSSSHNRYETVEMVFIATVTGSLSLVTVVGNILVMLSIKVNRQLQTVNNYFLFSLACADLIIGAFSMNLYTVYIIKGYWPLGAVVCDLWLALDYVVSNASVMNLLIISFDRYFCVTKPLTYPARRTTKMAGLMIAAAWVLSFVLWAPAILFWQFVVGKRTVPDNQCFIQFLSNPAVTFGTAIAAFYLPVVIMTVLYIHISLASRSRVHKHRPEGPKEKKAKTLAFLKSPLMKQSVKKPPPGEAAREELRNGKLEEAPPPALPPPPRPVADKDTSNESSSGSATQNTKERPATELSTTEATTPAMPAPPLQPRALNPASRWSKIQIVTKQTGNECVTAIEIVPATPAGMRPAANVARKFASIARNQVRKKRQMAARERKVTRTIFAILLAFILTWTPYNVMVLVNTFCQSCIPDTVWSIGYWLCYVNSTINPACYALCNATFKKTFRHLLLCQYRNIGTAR

M1 [4] = molecular target: T1, M1; conditions: fixed 30 µM compound, at M1; cited from earlier work

SMILES: O=C1C(=O)N(Cc2ccc(C(F)(F)F)cc2)c2c(Cl)cccc21 [compound 56]
M2 potentiator activity (M2): modest potentiation | EC50 (M4): > 10 µM | M4 potentiator activity (M4): modest potentiation

SMILES: O=C1C(=O)N(Cc2ccc(OC(F)(F)F)cc2)c2ccc(OC(F)(F)F)cc21 [compound 110]
EC50 (M1 [1]): > 30 µM

SMILES: Cc1ccccc1CN1C(=O)C(=O)c2cc(OC(F)(F)F)ccc21 [compound 111]
EC50 (M1 [1]): > 30 µM

SMILES: O=C1C(=O)N(Cc2ccc(Br)cc2F)c2ccc(OC(F)(F)F)cc21 [compound 112]
EC50 (M1 [1]): > 30 µM

SMILES: O=C1C(=O)N(Cc2ccc(Br)cc2)c2ccccc21 [compound 113]
leftward shift of full ACh CRC (M1 [4]): 14 fold | M2 potentiator activity (M2): lacked potentiator effects; also recorded: inactive | M4 potentiator activity (M4): lacked potentiator effects; also recorded: inactive

Now from value to compound, other results behind:

EC50 (M1 [1]): > 10 µM
SMILES: COc1ccc(CN2C(=O)C(=O)c3ccccc32)cc1 [compound 22]

EC50 (M1 [1]): > 30 µM
SMILES: COc1cccc(CN2C(=O)C(=O)c3c(Cl)ccc(Cl)c32)c1 [compound 38]

EC50 (M1 [1]): > 30 µM
SMILES: COc1cccc(CN2C(=O)C(=O)c3cc(OC(F)(F)F)ccc32)c1 [compound 41]

selectivity for M5 versus M1 and M3 (M5 [2]; from EC50 in Ca2+ assays): > 30 fold | selectivity for M5 versus the other four subtypes (M5 [2]; from EC50 in Ca2+ assays): > 30 × | M2 potentiator activity (M2; listed as VU0238429): no M2 or M4 potentiator activity | M4 potentiator activity (M4; listed as VU0238429): no M2 or M4 potentiator activity | EC50 (M1 [1]): > 30 µM
SMILES: COc1ccc(CN2C(=O)C(=O)c3cc(OC(F)(F)F)ccc32)cc1 [compound 42]
intrinsic agonist activity at M5 (M5 [2]; compound alone, absence of ACh, up to 30 µM, Ca2+ assay): absence of intrinsic agonist activity; also recorded: lacked intrinsic agonist activity | M2 potentiator activity (M2): lack of potentiation activity; also recorded: inactive | competition with [3H]-NMS binding to M5 (M5 [3]): lack of competition; also recorded: lacked competition | M4 potentiator activity (M4): lack of potentiation activity; also recorded: inactive

EC50 (M1 [1]): > 30 µM
SMILES: O=C1C(=O)N(Cc2ccccc2C(F)(F)F)c2c(F)cccc21 [compound 49]

EC50 (M1 [1]): > 30 µM
SMILES: O=C1C(=O)N(Cc2ccccc2Cl)c2ccc(OC(F)(F)F)cc21 [compound 64]

From paper PMC3875304 (Journal of medicinal chemistry, 2009)
